In patent US20180186742A1, “PICOLINAMIDES AS FUNGICIDES” (Dow AgroSciences LLC, priority 2017, published 2018):
Where two headings read alike, the source gives them in different places.

Columns and labels:
Assay type in all cases: in vivo
Phakopsora pachyrhizi = assay: Asian soybean rust (PHAKPA), disease control on soybean seedlings; conditions: High volume application at 25 ppm
Method in brief: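 Two-week-old Williams 82 soybean seedlings were sprayed to run-off with compound in acetone/water (1:9) containing 0.011% Tween 20. Inoculation was 3 days before (curative) or 1 day after (protectant) treatment, followed by 24 h dark dew at 22 °C, 100% RH, then 23 °C; disease severity scored on sprayed leaves.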

Parastagonospora nodorum = assay: Wheat glume blotch (LEPTNO), disease control on wheat seedlings; conditions: 1DP test at 100 ppm, read-out: LEPTNO disease control rating
Protocol: Technical grades of materials were dissolved in acetone, which were then mixed with nine volumes of water containing 110 ppm Triton X-100. The fungicide solutions were applied onto wheat seedlings using an automated booth sprayer to run-off. All sprayed plants were allowed to air dry prior to further handling. All fungicides were evaluated using the aforementioned method for their activity vs. all target diseases, unless stated otherwise. Wheat leaf blotch and brown rust activity were also evaluated using track spray applications, in which case the fungicides were formulated as EC formulations, containing 0.1% Trycol 5941 in the spray solutions. Wheat plants (variety Yuma) were grown from seed in a greenhouse in 50% mineral soil/50% soil-less Metro mix until the first leaf was fully emerged, with 7-10 seedlings per pot. These plants were inoculated with an aqueous spore suspension of Parastagonospora nodorum 24 hr after fungicide treatments. After inoculation the plants were kept in 100% relative humidity (one day in a dark dew chamber followed by two days in a lighted dew chamber at 20° C.) to permit spores to germinate and infect the leaf. The plants were then transferred to a greenhouse set at 20° C. for disease to develop. Fungicide formulation, application and disease assessment followed the procedures as described in the Example A.

Rhyncosporium secalis = assay: Barley scald (RHYNSE), disease control on barley seedlings; conditions: Hordeum vulgare, 24 h, 1DP (1 Day Protectant) test at 100 ppm
Protocol: Technical grades of materials were dissolved in acetone, which were then mixed with nine volumes of water containing 110 ppm Triton X-100. The fungicide solutions were applied onto wheat seedlings using an automated booth sprayer to run-off. All sprayed plants were allowed to air dry prior to further handling. All fungicides were evaluated using the aforementioned method for their activity vs. all target diseases, unless stated otherwise. Wheat leaf blotch and brown rust activity were also evaluated using track spray applications, in which case the fungicides were formulated as EC formulations, containing 0.1% Trycol 5941 in the spray solutions. Barley seedlings (variety Harrington) were propagated in soil-less Metro mix, with each pot having 8 to 12 plants, and used in the test when first leaf was fully emerged. Test plants were inoculated by an aqueous spore suspension of Rhyncosporium secalis 24 hr after fungicide treatments. After inoculation the plants were kept in a dew room at 20° C. with 100% relative humidity for 48 hr. The plants were then transferred to a greenhouse set at 20° C. for disease to develop. Fungicide formulation, application and disease assessment on the sprayed leaves followed the procedures as described in the Example A.

Cercospora beticola = assay: Leaf spot of sugar beets (CERCBE), disease control on sugar beet plants; conditions: 1DP test at 100 ppm, read-out: CERCBE disease control rating
Protocol: Technical grades of materials were dissolved in acetone, which were then mixed with nine volumes of water containing 110 ppm Triton X-100. The fungicide solutions were applied onto wheat seedlings using an automated booth sprayer to run-off. All sprayed plants were allowed to air dry prior to further handling. All fungicides were evaluated using the aforementioned method for their activity vs. all target diseases, unless stated otherwise. Wheat leaf blotch and brown rust activity were also evaluated using track spray applications, in which case the fungicides were formulated as EC formulations, containing 0.1% Trycol 5941 in the spray solutions. Sugar beet plants (variety HH88) were grown in soil-less Metro mix and trimmed regularly to maintain a uniform plant size prior to test. Plants were inoculated with a spore suspension 24 hr after fungicide treatments. Inoculated plants were kept in a dew chamber at 22° C. for 48 hr then incubated in a greenhouse set at 24° C. under a clear plastic hood with bottom ventilation until disease symptoms were fully expressed. Fungicide formulation, application and disease assessment on the sprayed leaves followed the procedures as described in the Example A.

Puccinia triticina = assay: Wheat brown rust (PUCCRT), disease control on wheat seedlings; conditions: low volume application at 121.5 g/H
Method in brief: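 Compounds in acetone, diluted with nine volumes of water containing 110 ppm Triton X-100, sprayed to run-off on first-leaf Yuma wheat seedlings; track-spray tests used EC formulations with 0.1% Trycol 5941. Puccinia triticina spores applied before or after treatment. Overnight dark dew room at 22° C, 100% humidity, then greenhouse at 24° C.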

[1] = 24 h, 1 Day Protectant, read-out: PHAKPA 1DP disease control rating
[2] = 72 h, 3 Day Curative, read-out: PHAKPA 3DC disease control rating
[3] = 24 h, 1 Day Protectant, read-out: PUCCRT disease control, 1DP, LV activity
[4] = 72 h, 3 Day Curative, read-out: PUCCRT disease control, 3DC, LV activity
[5] = 24 h, 1 Day Protectant, wheat brown rust, read-out: PUCCRT 1DP disease control, LV activity
[6] = 72 h, 3 Day Curative, wheat brown rust, read-out: PUCCRT 3DC disease control, LV activity

| SMILES | pest or weed control at 25 ppm (Phakopsora pachyrhizi; [1]) [%] | pest or weed control at 25 ppm (Phakopsora pachyrhizi; [2]) [%] | pest or weed control at 100 ppm (Parastagonospora nodorum) [%] | pest or weed control at 100 ppm (Rhyncosporium secalis) [%] | pest or weed control at 100 ppm (Cercospora beticola) [%] | pest or weed control at 121.5 g/ha (Puccinia triticina; [3]) [%] | pest or weed control at 121.5 g/ha (Puccinia triticina; [4]) [%] | pest or weed control at 121.5 g/ha (Puccinia triticina; [5]) [%] | pest or weed control at 121.5 g/ha (Puccinia triticina; [6]) [%] |
| --- | --- | --- | --- | --- | --- | --- | --- | --- | --- |
| COc1ccnc(C(=O)N[C@@H](C)C(=O)O[C@@H](C)[C@H](c2ccc(F)cc2C)C(C)C)c1OC(C)=O [Compound 186] | > 80 | > 80 | > 80 | < 80 | > 80 | > 80 | > 80 |  |  |
| CCC(CC)[C@@H](c1ccc(F)cc1C)[C@H](C)OC(=O)[C@H](C)NC(=O)c1nccc(OC)c1OC(C)=O [Compound 187] | > 80 | < 80 | < 80 | > 80 | > 80 | > 80 | < 80 |  |  |
| COc1ccnc(C(=O)N[C@@H](C)C(=O)O[C@@H](C)[C@H](c2ccc(F)cc2C)C(C)C)c1OC(=O)C(C)C [Compound 216] | > 80 | > 80 | > 80 | < 80 | > 80 | > 80 | > 80 |  |  |
| COc1ccnc2c(=O)n([C@@H](C)C(=O)O[C@@H](C)[C@H](c3ccc(F)cc3C)C(C)C)c(=O)oc12 [Compound 217] | > 80 | > 80 | > 80 | < 80 | > 80 | > 80 | > 80 |  |  |
| COc1cc[n+]([O-])c(C(=O)N[C@@H](C)C(=O)O[C@@H](C)[C@H](c2ccc(F)cc2C)C(C)C)c1O [Compound 218] | < 80 | < 80 | > 80 | < 80 | > 80 | > 80 | < 80 |  |  |
| COc1ccnc(C(=S)N[C@@H](C)C(=O)O[C@@H](C)[C@H](c2ccc(F)cc2C)C(C)C)c1OC(C)=O [Compound 219] | > 80 | > 80 | > 80 | < 80 | > 80 | > 80 | > 80 |  |  |
| COCCC(=O)Oc1c(OC)ccnc1C(=O)N[C@@H](C)C(=O)O[C@@H](C)[C@H](c1ccc(F)cc1C)C(C)C [Compound 220] | > 80 | > 80 | > 80 | < 80 | > 80 | > 80 | > 80 |  |  |
| COc1ccnc(C(=O)N[C@@H](C)C(=O)O[C@@H](C)[C@H](c2ccc(F)cc2C)C(C)C)c1OC(=O)C1CCCC1 [Compound 354] | > 80 | > 80 | > 80 | < 80 | > 80 | > 80 | < 80 |  |  |
| CCC(C)C(=O)Oc1c(OC)ccnc1C(=O)N[C@@H](C)C(=O)O[C@@H](C)[C@H](c1ccc(F)cc1C)C(C)C (some centres unmarked) [Compound 355] | > 80 | > 80 | > 80 | < 80 | > 80 | > 80 | < 80 |  |  |
| COc1ccnc(C(=O)N[C@@H](C)C(=O)O[C@@H](C)[C@H](c2ccc(F)cc2C)C(C)C)c1OC(=O)CC(C)C [Compound 356] | > 80 | > 80 | > 80 | < 80 | > 80 | > 80 | < 80 |  |  |
| CCC(=O)Oc1c(OC)ccnc1C(=O)N[C@@H](C)C(=O)O[C@@H](C)[C@H](c1ccc(F)cc1C)C(C)C [Compound 357] | > 80 | > 80 | > 80 | < 80 | > 80 | > 80 | > 80 |  |  |
| COc1ccnc(C(=O)N[C@@H](C)C(=O)O[C@@H](C)[C@H](c2cccc(F)c2C)C(C)C)c1OC(C)=O [Compound 359] | > 80 | > 80 | > 80 | > 80 | > 80 | > 80 | > 80 |  |  |
| COc1ccnc(C(=O)N[C@@H](C)C(=O)O[C@@H](C)[C@H](c2cccc(C)c2C)C(C)C)c1OC(C)=O [Compound 363] | > 80 | > 80 | < 80 | < 80 | > 80 | > 80 | > 80 |  |  |
| COc1ccnc(C(=O)N[C@@H](C)C(=O)O[C@@H](C)[C@H](c2ccccc2C)C(C)C)c1OC(C)=O [Compound 364] | > 80 | > 80 | < 80 | < 80 | > 80 |  |  | > 80 | < 80 |
| CCOC(=O)Oc1c(OC)ccnc1C(=O)N(C(=O)OCC)[C@@H](C)C(=O)O[C@@H](C)[C@H](c1ccc(F)cc1C)C(C)C [Compound 371] | > 80 | > 80 | > 80 | < 80 | > 80 |  |  |  |  |
| CCOC(=O)Oc1c(OC)ccnc1C(=O)N[C@@H](C)C(=O)O[C@@H](C)[C@H](c1ccc(F)cc1C)C(C)C [Compound 372] | > 80 | > 80 | > 80 | < 80 | > 80 |  |  |  |  |
| COc1ccnc(C(=O)N[C@@H](C)C(=O)O[C@@H](C)[C@H](c2ccc(F)cc2C)C(C)C)c1OC(=O)OC(C)C [Compound 373] | > 80 | > 80 | > 80 | < 80 | > 80 |  |  | > 80 | < 80 |
| COc1ccnc(C(=O)N[C@@H](C)C(=O)O[C@@H](C)[C@H](c2ccc(F)cc2C)C(C)C)c1OC(=O)C(C)(C)C [Compound 374] | > 80 | < 80 | > 80 | < 80 | > 80 |  |  | > 80 | < 80 |
